Experimental data published in patent US20260293949A1, “CARBONATION SENSATION IMPARTING OR ENHANCING AGENT” (TAKASAGO INTERNATIONAL CORPORATION, priority 2022, published 2026).

How the values were obtained:
Type in all cases: in vivo
[1] = Sensory evaluation of carbonation sensation imparting in black tea beverage with fruit juice; details: for Carbonation sensation imparting evaluation result: average score of seven panelists
Method: (§1) In the following Examples, the action and effect were verified using a value obtained by calculating an average score of scores for imparting or enhancing fizziness by sensory evaluation conducted by specialized panelists. The expression “1 point” in the evaluation is the evaluation in the case where no component is added at all (no addition).
Diethyl sebacate was separately added to “Afternoon Tea Apple Tea Plus (registered trademark) (manufactured by Kirin Beverage Co., Ltd.)” so as to reach the concentrations shown in Table 9 below, and sensory evaluation was performed by seven specialized panelists to determine the extent to which fizziness was imparted as compared with a control in which diethyl sebacate was not added.

[2] = Sensory evaluation of fizziness enhancement in carbonated water (WILKINSON TANSAN), specialized panelists; details: for Fizziness enhancement evaluation result: average score of seven panelists, 1 to 5
Method: as §1
Diethyl sebacate (manufactured by Inoue Perfumery Mfg. Co., Ltd., the same applies to the following Examples) was separately added to “WILKINSON (registered trademark) TANSAN (manufactured by Asahi Soft Drinks Co., Ltd.)” so as to reach the concentrations shown in Table 2 below, and sensory evaluation was performed by seven specialized panelists to determine the extent to which fizziness was enhanced as compared with a control in which diethyl sebacate was not added.
Diisobutyl adipate (manufactured by Inoue Perfumery Mfg. Co., Ltd., the same applies to the following Examples) was separately added to “WILKINSON (registered trademark) TANSAN (manufactured by Asahi Soft Drinks Co., Ltd.)” so as to reach the concentrations shown in Table 3 below, and sensory evaluation was performed by seven specialized panelists to determine the extent to which fizziness was enhanced as compared with a control in which diisobutyl adipate was not added.
Dimethyl sebacate (manufactured by Tokyo Chemical Industry Co., Ltd.) was separately added to “WILKINSON (registered trademark) TANSAN (manufactured by Asahi Soft Drinks Co., Ltd.)” so as to reach the concentrations shown in Table 4 below, and sensory evaluation was performed by seven specialized panelists to determine the extent to which fizziness was enhanced as compared with a control in which dimethyl sebacate was not added.
Dipropyl adipate (manufactured by Tokyo Chemical Industry Co., Ltd.) was separately added to “WILKINSON (registered trademark) TANSAN (manufactured by Asahi Soft Drinks Co., Ltd.)” so as to reach the concentrations shown in Table 5 below, and sensory evaluation was performed by seven specialized panelists to determine the extent to which fizziness was enhanced as compared with a control in which dipropyl adipate was not added.

[3] = Sensory evaluation of carbonation sensation imparting in cola-flavored compressed tablet candy; details: for Carbonation sensation imparting evaluation result: compressed tablet candy, average score of six panelists, 1 to 5
Method: as §1
Diethyl sebacate was separately added to a cola-flavored compressed tablet candy prepared according to the formulation shown in Table 14 using a pestle with a diameter of 7 mm, so as to reach a concentration shown in Table 15 below, and sensory evaluation was performed by six panelists to determine the extent to which fizziness was imparted as compared with a control in which diethyl sebacate was not added.

For `CCOC(=O)CCCCCCCCC(=O)OCC` [Diethyl sebacate, diethyl sebacate], the “amelioration of mouthfeel (in words)” value [1] was “effect of ameliorating the mouthfeel was also confirmed”, the “Carbonation sensation imparting evaluation result” value ([1]; 0.1 ppm, 1 (almost no fizziness) to 5 (extremely imparted)) was 1.1 points and the “Carbonation sensation imparting evaluation result” value ([1]; 0.3 ppm, 1 to 5) was 1.3 points. The “Carbonation sensation imparting evaluation result” value ([1]; 1 ppm, 1 to 5) was 1.9 points, the “Carbonation sensation imparting evaluation result” value ([1]; 5 ppm, 1 to 5) was 2.7 points and the “Carbonation sensation imparting evaluation result” value ([1]; 10 ppm, 1 to 5) was 2.9 points. The “Carbonation sensation imparting evaluation result” value ([1]; 20 ppm, 1 to 5) was 1.7 points, the “Carbonation sensation imparting evaluation result” value ([1]; 50 ppm, 1 to 5) was 1.7 points and the “Carbonation sensation imparting evaluation result” value ([1]; 100 ppm, 1 to 5) was 1.1 points. For the same compound, the “fizziness imparting (in words)” value ([1]; contains no carbon dioxide) was “fizziness can be imparted to a black tea beverage with fruit juice”, the “amelioration of mouthfeel (in words)” value [2] was “effect of ameliorating the mouthfeel was also confirmed” and the “fizziness enhancement (in words)” value [2] was “fizziness of carbonated water can be enhanced”. The “Fizziness enhancement evaluation result” value ([2]; 0.1 ppm) was 1.1 points, the “Fizziness enhancement evaluation result” value ([2]; 0.3 ppm) was 2.1 points and the “Fizziness enhancement evaluation result” value ([2]; 1 ppm) was 3.7 points. For the same compound, the “Fizziness enhancement evaluation result” value ([2]; 5 ppm) was 4.6 points, the “Fizziness enhancement evaluation result” value ([2]; 10 ppm) was 4.5 points and the “Fizziness enhancement evaluation result” value ([2]; 20 ppm) was 2.5 points. For the same compound, the “Fizziness enhancement evaluation result” value ([2]; 50 ppm) was 2.1 points, the “Fizziness enhancement evaluation result” value ([2]; 100 ppm) was 1.7 points and the “Carbonation sensation imparting evaluation result” value ([3]; 0.1 ppm) was 1.5 points. The “Carbonation sensation imparting evaluation result” value ([3]; 1 ppm) was 2.2 points, the “Carbonation sensation imparting evaluation result” value ([3]; 10 ppm) was 2.5 points and the “Carbonation sensation imparting evaluation result” value ([3]; 100 ppm) was 4.0 points. For the same compound, the “Carbonation sensation imparting evaluation result” value ([3]; 1000 ppm) was 3.0 points, the “Carbonation sensation imparting evaluation result” value ([3]; 10000 ppm) was 1.5 points and the “Carbonation sensation imparting evaluation result” value ([3]; 20000 ppm) was 1.2 points. The “amelioration of mouthfeel (in words)” value ([3]; compressed tablet candies) was “effect of ameliorating the mouthfeel was also confirmed” and the “fizziness imparting (in words)” value ([3]; compressed tablet candies) was “fizziness can be imparted to compressed tablet candies”.
